{"source": "patent US8192962B2", "about": "“Processes for detecting toxic substances” (Daikin Industries, Ltd., priority 2001, dated 2012)", "tested_on": "Transport facilitation protein genes", "experiment": "DNA chip mRNA expression in yeast, transport facilitation protein genes (Table 5)", "format": "cell-based, Saccharomyces cerevisiae S288C", "method_in_brief": "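Ratios compare mRNA levels in stressed and control S. cerevisiae. Each toxicant was applied for two hours to log-phase cultures at 25° C. at a sub-lethal, growth-inhibiting level; fluorescent cDNA (Cy3- or Cy5-dUTP) was hybridized to a genome-wide yeast chip for over 12 h at 65° C.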", "data": [{"substance": "Na2As [(1)]", "values": [{"measurement": "The level of expressed mRNA in the presence of chemical substance/The level of expressed mRNA in the absence of chemical substance", "setting": "yeast gene YBL030C", "value": 1.0}, {"measurement": "The level of expressed mRNA in the presence of chemical substance/The level of expressed mRNA in the absence of chemical substance", "setting": "yeast gene YBL099W", "value": 0.8}, {"measurement": "The level of expressed mRNA in the presence of chemical substance/The level of expressed mRNA in the absence of chemical substance", "setting": "yeast gene YBR052C", "value": 1.6}, {"measurement": "The level of expressed mRNA in the presence of chemical substance/The level of expressed mRNA in the absence of chemical substance", "setting": "yeast gene YBR068C", "value": 1.1}, {"measurement": "The level of expressed mRNA in the presence of chemical substance/The level of expressed mRNA in the absence of chemical substance", "setting": "yeast gene YBR127C", "value": 0.8}, {"measurement": "The level of expressed mRNA in the presence of chemical substance/The level of expressed mRNA in the absence of chemical substance", "setting": "yeast gene YBR132C", "value": 0.9}, {"measurement": "The level of expressed mRNA in the presence of chemical substance/The level of expressed mRNA in the absence of chemical substance", "setting": "yeast gene YBR207W", "value": 0.8}, {"measurement": "The level of expressed mRNA in the presence of chemical substance/The level of expressed mRNA in the absence of chemical substance", "setting": "yeast gene YBR293W", "value": 1.9}, {"measurement": "The level of expressed mRNA in the presence of chemical substance/The level of expressed mRNA in the absence of chemical substance", "setting": "yeast gene YBR294W", "value": 6.3}, {"measurement": "The level of expressed mRNA in the presence of chemical substance/The level of expressed mRNA in the absence of chemical substance", "setting": "yeast gene YBR295W", "value": 1.4}, {"measurement": "The level of expressed mRNA in the presence of chemical substance/The level of expressed mRNA in the absence of chemical substance", "setting": "yeast gene YBR298C", "value": 1.1}, {"measurement": "The level of expressed mRNA in the presence of chemical substance/The level of expressed mRNA in the absence of chemical substance", "setting": "yeast gene YCL025C", "value": 1.1}, {"measurement": "The level of expressed mRNA in the presence of chemical substance/The level of expressed mRNA in the absence of chemical substance", "setting": "yeast gene YCL038C", "value": 1.6}, {"measurement": "The level of expressed mRNA in the presence of chemical substance/The level of expressed mRNA in the absence of chemical substance", "setting": "yeast gene YCR024C-A", "value": 0.8}, {"measurement": "The level of expressed mRNA in the presence of chemical substance/The level of expressed mRNA in the absence of chemical substance", "setting": "yeast gene YCR037C", "value": 0.7}, {"measurement": "The level of expressed mRNA in the presence of chemical substance/The level of expressed mRNA in the absence of chemical substance", "setting": "yeast gene YCR098C", "value": 1.6}, {"measurement": "The level of expressed mRNA in the presence of chemical substance/The level of expressed mRNA in the absence of chemical substance", "setting": "yeast gene YDL128W", "value": 0.8}, {"measurement": "The level of expressed mRNA in the presence of chemical substance/The level of expressed mRNA in the absence of chemical substance", "setting": "yeast gene YDL198C", "value": 1.4}, {"measurement": "The level of expressed mRNA in the presence of chemical substance/The level of expressed mRNA in the absence of chemical substance", "setting": "yeast gene YDL210W", "value": 1.2}, {"measurement": "The level of expressed mRNA in the presence of chemical substance/The level of expressed mRNA in the absence of chemical substance", "setting": "yeast gene YDL245C", "value": 1.0}, {"measurement": "The level of expressed mRNA in the presence of chemical substance/The level of expressed mRNA in the absence of chemical substance", "setting": "yeast gene YDR038C", "value": 0.6}, {"measurement": "The level of expressed mRNA in the presence of chemical substance/The level of expressed mRNA in the absence of chemical substance", "setting": "yeast gene YDR039C", "value": 0.6}, {"measurement": "The level of expressed mRNA in the presence of chemical substance/The level of expressed mRNA in the absence of chemical substance", "setting": "yeast gene YDR086C", "value": 1.3}, {"measurement": "The level of expressed mRNA in the presence of chemical substance/The level of expressed mRNA in the absence of chemical substance", "setting": "yeast gene YDR270W", "value": 0.7}, {"measurement": "The level of expressed mRNA in the presence of chemical substance/The level of expressed mRNA in the absence of chemical substance", "setting": "yeast gene YDR298C", "value": 1.3}, {"measurement": "The level of expressed mRNA in the presence of chemical substance/The level of expressed mRNA in the absence of chemical substance", "setting": "yeast gene YDR342C", "value": 2.8}, {"measurement": "The level of expressed mRNA in the presence of chemical substance/The level of expressed mRNA in the absence of chemical substance", "setting": "yeast gene YDR343C", "value": 1.2}, {"measurement": "The level of expressed mRNA in the presence of chemical substance/The level of expressed mRNA in the absence of chemical substance", "setting": "yeast gene YDR345C", "value": 0.8}, {"measurement": "The level of expressed mRNA in the presence of chemical substance/The level of expressed mRNA in the absence of chemical substance", "setting": "yeast gene YDR387C", "value": 0.8}, {"measurement": "The level of expressed mRNA in the presence of chemical substance/The level of expressed mRNA in the absence of chemical substance", "setting": "yeast gene YDR497C", "value": 0.7}, {"measurement": "The level of expressed mRNA in the presence of chemical substance/The level of expressed mRNA in the absence of chemical substance", "setting": "yeast gene YEL027W", "value": 1.2}, {"measurement": "The level of expressed mRNA in the presence of chemical substance/The level of expressed mRNA in the absence of chemical substance", "setting": "yeast gene YEL063C", "value": 0.7}, {"measurement": "The level of expressed mRNA in the presence of chemical substance/The level of expressed mRNA in the absence of chemical substance", "setting": "yeast gene YEL065W", "value": 0.3}, {"measurement": "The level of expressed mRNA in the presence of chemical substance/The level of expressed mRNA in the absence of chemical substance", "setting": "yeast gene YER053C", "value": 1.6}, {"measurement": "The level of expressed mRNA in the presence of chemical substance/The level of expressed mRNA in the absence of chemical substance", "setting": "yeast gene YFL011W", "value": 1.2}, {"measurement": "The level of expressed mRNA in the presence of chemical substance/The level of expressed mRNA in the absence of chemical substance", "setting": "yeast gene YFL041W", "value": 0.7}, {"measurement": "The level of expressed mRNA in the presence of chemical substance/The level of expressed mRNA in the absence of chemical substance", "setting": "yeast gene YFL050C", "value": 0.7}, {"measurement": "The level of expressed mRNA in the presence of chemical substance/The level of expressed mRNA in the absence of chemical substance", "setting": "yeast gene YFL054C", "value": 1.6}, {"measurement": "The level of expressed mRNA in the presence of chemical substance/The level of expressed mRNA in the absence of chemical substance", "setting": "yeast gene YGL006W", "value": 2.5}, {"measurement": "The level of expressed mRNA in the presence of chemical substance/The level of expressed mRNA in the absence of chemical substance", "setting": "yeast gene YGL008C", "value": 0.6}, {"measurement": "The level of expressed mRNA in the presence of chemical substance/The level of expressed mRNA in the absence of chemical substance", "setting": "yeast gene YGL104C", "value": 0.8}, {"measurement": "The level of expressed mRNA in the presence of chemical substance/The level of expressed mRNA in the absence of chemical substance", "setting": "yeast gene YGL167C", "value": 0.9}, {"measurement": "The level of expressed mRNA in the presence of chemical substance/The level of expressed mRNA in the absence of chemical substance", "setting": "yeast gene YGL255W", "value": 0.7}, {"measurement": "The level of expressed mRNA in the presence of chemical substance/The level of expressed mRNA in the absence of chemical substance", "setting": "yeast gene YGR055W", "value": 2.5}, {"measurement": "The level of expressed mRNA in the presence of chemical substance/The level of expressed mRNA in the absence of chemical substance", "setting": "yeast gene YGR065C", "value": 0.8}, {"measurement": "The level of expressed mRNA in the presence of chemical substance/The level of expressed mRNA in the absence of chemical substance", "setting": "yeast gene YGR082W", "value": 1.0}, {"measurement": "The level of expressed mRNA in the presence of chemical substance/The level of expressed mRNA in the absence of chemical substance", "setting": "yeast gene YGR096W", "value": 1.5}, {"measurement": "The level of expressed mRNA in the presence of chemical substance/The level of expressed mRNA in the absence of chemical substance", "setting": "yeast gene YGR138C", "value": 1.1}, {"measurement": "The level of expressed mRNA in the presence of chemical substance/The level of expressed mRNA in the absence of chemical substance", "setting": "yeast gene YGR191W", "value": 0.8}, {"measurement": "The level of expressed mRNA in the presence of chemical substance/The level of expressed mRNA in the absence of chemical substance", "setting": "yeast gene YGR197C", "value": 1.1}]}]}
